{"source": "patent US20030166301A1", "about": "“Multiple binding moiety chromatography device, methods of using and methods of making same” (priority 2001, published 2003)", "key": {"Nicotinic Receptor": {"target": "Nicotinic Receptor", "settings": "read-out: Kd Standard, cited from earlier work"}, "GABAA receptor [1]": {"test_system": "GABAA receptor", "assay": "Frontal chromatography on MR-SP, marker (3H)-FTZ", "type": "binding, rat", "protocol": "(§1) Solubilization of rat brain tissue: All of the tissue from four rat brains was homogenized in 30 ml of Tris-HCl buffer (50 mM, pH 7.4) containing 5 mM EDTA, 3 mM benzamidine and 0.2 mM PMSF for 3×20 seconds using a Polytron homogenizer (Brinkman Instruments, Westbury, N.Y., USA) at setting 6. The mixture was kept in an ice bath for 20 seconds between each homogenization step to prevent excessive heating of the tissue. The homogenized brain tissue was centrifuged for 10 minutes at 4° C. at 35,000×g, and the supernatant was discarded. The pellet was suspended in 10 ml of Tris-HCl buffer (50 mM, pH 7.4) containing 100 mM NaCl, 2 mM MgCl2, 3 mM CaCl2, 5 mM KCl, 2% sodium cholate, and 10 μg/ml leupeptin. The resulting mixture was stirred for 12 hours at 4° C. and centrifuged at 35,000×g.\n(§2) Immobilization of solubilized receptors: The supernatant (receptor-cholate suspension) was mixed with 200 mg of dried IAM-PC packing material and stirred gently for 1 hour at 25° C., transferred into dialysis tubing, and dialyzed for 48 hours at 4° C. against 3×600 ml of Tris-HCl buffer (50 mM, pH 7.4) containing 5 mM EDTA, 100 mM NaCl, 0.1 mM CaCl2 and 0.1 mM PMSF. […]\n(§3) The value of Vmin can be determined by running (^3H)-EB in a series of concentration of drugs and plotting 1/(Vmax−V) versus 1/(drug) extrapolating to infinite (drug). […]"}, "NCT receptor": {"target": "NCT receptor (Rattus norvegicus, UniProt P09483+P12390)", "sequence (P12390 25-500)": "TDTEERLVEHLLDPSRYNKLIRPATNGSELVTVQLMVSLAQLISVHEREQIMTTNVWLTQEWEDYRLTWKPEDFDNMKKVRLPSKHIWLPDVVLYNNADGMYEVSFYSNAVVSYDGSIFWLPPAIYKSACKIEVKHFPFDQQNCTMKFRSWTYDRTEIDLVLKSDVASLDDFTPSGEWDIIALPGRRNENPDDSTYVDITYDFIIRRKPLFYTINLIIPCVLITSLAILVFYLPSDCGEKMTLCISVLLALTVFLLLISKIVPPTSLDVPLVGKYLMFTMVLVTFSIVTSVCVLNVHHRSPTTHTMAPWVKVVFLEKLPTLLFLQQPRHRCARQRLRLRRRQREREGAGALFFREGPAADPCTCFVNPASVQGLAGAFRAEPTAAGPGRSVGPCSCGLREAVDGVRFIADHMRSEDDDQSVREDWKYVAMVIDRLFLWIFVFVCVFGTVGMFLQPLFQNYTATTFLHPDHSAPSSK", "sequence (P09483 31-630)": "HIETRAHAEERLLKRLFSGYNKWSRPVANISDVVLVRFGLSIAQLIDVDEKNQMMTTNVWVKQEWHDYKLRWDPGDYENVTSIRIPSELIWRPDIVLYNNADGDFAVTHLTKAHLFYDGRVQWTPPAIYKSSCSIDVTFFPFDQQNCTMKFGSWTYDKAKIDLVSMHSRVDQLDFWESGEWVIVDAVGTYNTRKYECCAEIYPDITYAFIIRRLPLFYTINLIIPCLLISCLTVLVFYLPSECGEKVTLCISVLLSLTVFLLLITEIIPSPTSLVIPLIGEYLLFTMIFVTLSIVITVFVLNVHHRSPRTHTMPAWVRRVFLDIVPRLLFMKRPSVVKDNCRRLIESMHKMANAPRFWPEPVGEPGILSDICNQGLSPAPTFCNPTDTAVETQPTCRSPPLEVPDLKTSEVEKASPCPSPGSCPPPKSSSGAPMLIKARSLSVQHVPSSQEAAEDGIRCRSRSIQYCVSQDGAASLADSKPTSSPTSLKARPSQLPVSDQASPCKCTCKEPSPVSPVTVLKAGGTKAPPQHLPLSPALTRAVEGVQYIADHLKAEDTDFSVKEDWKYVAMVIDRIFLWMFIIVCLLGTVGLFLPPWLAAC", "type": "binding", "protocol": "as §1, §2, §3"}, "PGP": {"target": "PGP (Homo sapiens, UniProt P08183)", "sequence (P08183 whole entry)": "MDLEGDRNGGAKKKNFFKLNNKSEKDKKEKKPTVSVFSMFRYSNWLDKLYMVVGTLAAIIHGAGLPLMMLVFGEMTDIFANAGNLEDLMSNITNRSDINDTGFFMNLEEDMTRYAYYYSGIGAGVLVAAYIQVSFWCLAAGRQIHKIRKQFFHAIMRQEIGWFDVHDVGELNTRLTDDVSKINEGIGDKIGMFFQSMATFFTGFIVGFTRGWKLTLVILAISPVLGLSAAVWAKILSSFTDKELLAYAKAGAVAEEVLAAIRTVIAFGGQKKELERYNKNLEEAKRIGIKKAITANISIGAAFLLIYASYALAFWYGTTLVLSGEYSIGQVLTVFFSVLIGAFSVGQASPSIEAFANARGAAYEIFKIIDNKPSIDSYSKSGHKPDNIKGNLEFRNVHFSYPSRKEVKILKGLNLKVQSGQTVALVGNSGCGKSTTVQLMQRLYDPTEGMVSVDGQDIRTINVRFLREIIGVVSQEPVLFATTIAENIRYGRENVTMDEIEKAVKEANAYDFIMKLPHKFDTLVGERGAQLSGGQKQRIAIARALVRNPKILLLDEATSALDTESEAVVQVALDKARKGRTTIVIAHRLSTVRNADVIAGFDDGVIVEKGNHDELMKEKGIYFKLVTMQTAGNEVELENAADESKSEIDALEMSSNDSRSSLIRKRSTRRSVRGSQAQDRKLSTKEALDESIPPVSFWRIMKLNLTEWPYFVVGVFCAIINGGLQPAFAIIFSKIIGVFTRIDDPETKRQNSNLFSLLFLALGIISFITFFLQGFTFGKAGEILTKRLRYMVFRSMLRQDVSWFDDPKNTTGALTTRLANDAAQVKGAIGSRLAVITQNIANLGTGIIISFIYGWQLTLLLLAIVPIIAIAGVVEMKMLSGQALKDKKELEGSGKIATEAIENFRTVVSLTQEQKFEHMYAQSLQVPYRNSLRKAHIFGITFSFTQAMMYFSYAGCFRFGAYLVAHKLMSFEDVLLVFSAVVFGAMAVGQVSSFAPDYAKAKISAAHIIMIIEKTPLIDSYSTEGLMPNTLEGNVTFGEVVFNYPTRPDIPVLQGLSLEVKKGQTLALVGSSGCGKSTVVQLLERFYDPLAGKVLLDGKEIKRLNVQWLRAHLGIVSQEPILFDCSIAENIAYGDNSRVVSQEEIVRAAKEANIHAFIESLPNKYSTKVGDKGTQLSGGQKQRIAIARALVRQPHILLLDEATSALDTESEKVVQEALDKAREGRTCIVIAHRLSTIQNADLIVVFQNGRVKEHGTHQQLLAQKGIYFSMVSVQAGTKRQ", "assay": "Frontal chromatography on open tubular PGP column (PGP-OTB)", "protocol": "Preparation of open tubular capillary: A 25 cm×100 u ID capillary was cleaned with 0.5 N NaOH running through for 40 minutes at low pressure followed by water for 20 minutes. Then placed in the oven at 95° C. for 30 minutes. Then APTS (90 parts water: 10 parts APTS) was run through the column for 5 minutes at high pressure and placed in the oven for 30 minutes. This was repeated and left overnight. The following morning, a 1% gluteraldehyde solution in PBS was then run through at high pressure for 30 minutes followed by air. Then avidin (10 mg in 4 mL 50 mM PBS) was run through for 3 minutes at high pressure. Then both tips were submerged in the avidin solution overnight at 4° C. It was determined at this stage that the column needs to be washed for 4-6 hours at 50 ul/min with Tris buffer prior to continuing to the next stage. The purpose being to remove any unbound avidin. A frontal study using a 5 mL sample of 0.5 nM ^3H-Vinblastin (RM062702002) was carried out to determine if vinblastin had specific binding to avidin.\nSubsequently, a solution of 14 mM BioX (15 mg of BioX in 1 mL DMSO) was run through the column at high pressure for 10 minutes and left in the solution for 48 hours. A frontal study of 0.5 nM ^3H-Vinblastin (5 mL) was carried out on the BiotinX-Avidin labeled OT column to determine if any interactions between vinblastin and biotin could be seen. […]"}, "GABAA receptor [2]": {"target": "GABAA receptor", "settings": "rat brain membranes; read-out: Kd Standard; cited from earlier work"}}, "note": "Values joined by “and” are separate entries in the source; they are usually repeats but may differ in a detail not shown here. Identical values can stand only once. Like-named read-outs stand apart in the source and are kept apart here.", "data": [{"molecule": "Clc1ccc(C2CC3CCC2N3)cn1", "note": "(stereo not shown) [Epibatidine]", "values": [{"measurement": "Kd", "setting": "Nicotinic Receptor; rat brain membranes", "result": 0.05, "unit": "nM"}]}, {"molecule": "CN1CCCC1c1cccnc1", "note": "(stereo not shown) [Nicotine]", "values": [{"measurement": "Effect on elution volume of 25 pM (3H)-FTZ", "setting": "GABAA receptor [1]; ligand at 1 μM in mobile phase", "result": "no decrease in the elution volume"}, {"measurement": "Kd", "setting": "Nicotinic Receptor", "result": 0.8, "unit": "nM"}, {"measurement": "Effect on elution (breakthrough) volume of 60 pM (3H)-EB", "setting": "NCT receptor", "result": "reduction in the breakthrough volume"}]}, {"molecule": "CN[C@H](CC(=O)O)C(=O)O", "note": "[NMDA, N-methyl D-aspartate]", "values": [{"measurement": "Displacement of (3H)-MK-801", "setting": "NMDA receptor; displacer 1 mM to 2 mM in chromatographic buffer", "result": "able to specifically displace"}, {"measurement": "Kd", "setting": "NMDA receptor; read-out: Kd Frontal, MR-SP, 2 nM (3H)-MK-801 marker, 1 μM L-glutamate and 1 μM glycine, two determinations (FIG. 2A, 2B)", "result": "1.2 nM and 0.6 nM"}]}, {"molecule": "CC[C@]1(O)C[C@@H]2CN(CCc3c([nH]c4ccccc34)[C@@](C(=O)OC)(c3cc4c(cc3OC)N(C)[C@H]3[C@@](O)(C(=O)OC)[C@H](OC(C)=O)[C@]5(CC)C=CCN6CC[C@]43[C@@H]65)C2)C1", "note": "[Vinblastin]", "values": [{"measurement": "Bmax (binding sites on the PGP-OTB column)", "setting": "PGP; not told", "result": 3, "unit": "mmol"}, {"measurement": "Kd", "setting": "PGP; read-out: Kd for the PGP-OTB column, 0.5 nM 3H-Vinblastin marker, r2 0.902", "result": 97, "unit": "nM"}]}, {"molecule": "CN1C(=O)CN=C(c2ccccc2)c2cc(Cl)ccc21", "note": "[Diazepam]", "values": [{"measurement": "Kd", "setting": "GABAA receptor [2]", "result": 1.3, "unit": "nM"}, {"measurement": "Kd", "setting": "GABAA receptor [1]; MR-SP from rat brain, 25 pM (3H)-FTZ marker, Tris-HCl 50 mM pH 7.4", "result": 1, "unit": "nM"}]}]}
